In brackets after ≈: the same amount, converted by molar mass.
Columns and labels:
[1] = system: Streptococcus pneumoniae; assay: Antimicrobial activity against penicillin-resistant Streptococcus pneumoniae 2527 by CLSI method; assay type: functional
[2] = biological target: T1, Penicillin-binding protein 1A (Streptococcus pneumoniae serotype 4 (strain ATCC BAA-334 / TIGR4), UniProt Q04707); assay: Displacement of Biocillin FL from Streptococcus pneumoniae 3243 PBP1A
T1 sequence (Q04707 whole entry): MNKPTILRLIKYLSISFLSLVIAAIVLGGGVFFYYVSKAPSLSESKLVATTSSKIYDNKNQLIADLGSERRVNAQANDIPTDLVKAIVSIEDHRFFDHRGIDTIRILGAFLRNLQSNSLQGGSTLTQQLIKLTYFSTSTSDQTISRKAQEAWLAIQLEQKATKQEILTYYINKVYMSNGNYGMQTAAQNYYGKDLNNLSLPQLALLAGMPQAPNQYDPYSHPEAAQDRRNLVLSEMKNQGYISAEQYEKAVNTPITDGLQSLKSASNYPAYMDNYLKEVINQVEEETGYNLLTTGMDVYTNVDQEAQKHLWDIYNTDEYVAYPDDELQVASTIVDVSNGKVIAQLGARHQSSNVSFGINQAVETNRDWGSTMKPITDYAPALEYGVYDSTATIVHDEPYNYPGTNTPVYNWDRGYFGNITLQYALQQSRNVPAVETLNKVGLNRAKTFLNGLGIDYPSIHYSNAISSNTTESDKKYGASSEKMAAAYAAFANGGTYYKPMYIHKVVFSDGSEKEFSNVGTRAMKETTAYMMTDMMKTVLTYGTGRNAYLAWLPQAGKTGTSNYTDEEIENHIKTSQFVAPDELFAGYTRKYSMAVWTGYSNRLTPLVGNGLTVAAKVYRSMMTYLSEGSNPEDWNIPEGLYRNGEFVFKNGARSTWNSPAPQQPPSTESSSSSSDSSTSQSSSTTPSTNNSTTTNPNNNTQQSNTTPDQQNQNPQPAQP

[3] = Displacement of Biocillin FL from Streptococcus pneumoniae 3676 PBP3
[4] = Displacement of Biocillin FL from Streptococcus pneumoniae 3009 PBP3
[5] = biological target: T2, Penicillin-binding protein 2B (Streptococcus pneumoniae serotype 4 (strain ATCC BAA-334 / TIGR4), UniProt P0A3M5); assay: Displacement of Biocillin FL from Streptococcus pneumoniae 1077 PBP2B
T2 sequence (P0A3M5 whole entry): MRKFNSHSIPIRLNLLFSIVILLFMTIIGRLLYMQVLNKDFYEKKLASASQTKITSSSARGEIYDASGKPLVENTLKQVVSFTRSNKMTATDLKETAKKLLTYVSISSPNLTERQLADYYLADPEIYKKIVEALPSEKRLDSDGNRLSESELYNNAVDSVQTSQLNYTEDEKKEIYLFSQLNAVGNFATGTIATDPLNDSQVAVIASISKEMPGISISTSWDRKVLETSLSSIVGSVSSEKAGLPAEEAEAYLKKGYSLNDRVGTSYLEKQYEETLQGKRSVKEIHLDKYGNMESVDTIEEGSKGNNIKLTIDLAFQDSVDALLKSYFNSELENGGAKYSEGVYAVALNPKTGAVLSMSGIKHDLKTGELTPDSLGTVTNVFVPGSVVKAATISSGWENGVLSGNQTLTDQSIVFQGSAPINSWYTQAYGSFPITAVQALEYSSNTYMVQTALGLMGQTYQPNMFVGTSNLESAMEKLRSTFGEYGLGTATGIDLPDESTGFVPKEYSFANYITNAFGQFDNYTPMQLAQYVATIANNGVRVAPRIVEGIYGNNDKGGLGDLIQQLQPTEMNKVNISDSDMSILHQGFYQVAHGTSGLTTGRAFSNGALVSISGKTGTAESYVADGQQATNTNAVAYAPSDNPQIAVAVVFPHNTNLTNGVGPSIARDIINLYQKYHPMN

[6] = biological target: T1, Penicillin-binding protein 1A; assay: Displacement of Biocillin FL from Streptococcus pneumoniae 2527 PBP1A
[7] = Displacement of Biocillin FL from Streptococcus pneumoniae 3009 PBP2A
[8] = Displacement of Biocillin FL from Streptococcus pneumoniae 3665 PBP3
[9] = biological target: T2, Penicillin-binding protein 2B; assay: Displacement of Biocillin FL from Streptococcus pneumoniae 3665 PBP2B
[10] = system: Streptococcus pneumoniae; assay: Antimicrobial activity against penicillin-sensitive Streptococcus pneumoniae 3009 by CLSI method; assay type: functional
[11] = system: Streptococcus pneumoniae; assay: Antimicrobial activity against Streptococcus pneumoniae 2688 by CLSI method; assay type: functional
[12] = system: Streptococcus pneumoniae; assay: Antimicrobial activity against penicillin-sensitive Streptococcus pneumoniae 1077 by CLSI method; assay type: functional
[13] = biological target: T3, Penicillin-binding protein 2x (Streptococcus pneumoniae serotype 4 (strain ATCC BAA-334 / TIGR4), UniProt P14677); assay: Displacement of Biocillin FL from Streptococcus pneumoniae 3413 PBP2X
T3 sequence (P14677 whole entry): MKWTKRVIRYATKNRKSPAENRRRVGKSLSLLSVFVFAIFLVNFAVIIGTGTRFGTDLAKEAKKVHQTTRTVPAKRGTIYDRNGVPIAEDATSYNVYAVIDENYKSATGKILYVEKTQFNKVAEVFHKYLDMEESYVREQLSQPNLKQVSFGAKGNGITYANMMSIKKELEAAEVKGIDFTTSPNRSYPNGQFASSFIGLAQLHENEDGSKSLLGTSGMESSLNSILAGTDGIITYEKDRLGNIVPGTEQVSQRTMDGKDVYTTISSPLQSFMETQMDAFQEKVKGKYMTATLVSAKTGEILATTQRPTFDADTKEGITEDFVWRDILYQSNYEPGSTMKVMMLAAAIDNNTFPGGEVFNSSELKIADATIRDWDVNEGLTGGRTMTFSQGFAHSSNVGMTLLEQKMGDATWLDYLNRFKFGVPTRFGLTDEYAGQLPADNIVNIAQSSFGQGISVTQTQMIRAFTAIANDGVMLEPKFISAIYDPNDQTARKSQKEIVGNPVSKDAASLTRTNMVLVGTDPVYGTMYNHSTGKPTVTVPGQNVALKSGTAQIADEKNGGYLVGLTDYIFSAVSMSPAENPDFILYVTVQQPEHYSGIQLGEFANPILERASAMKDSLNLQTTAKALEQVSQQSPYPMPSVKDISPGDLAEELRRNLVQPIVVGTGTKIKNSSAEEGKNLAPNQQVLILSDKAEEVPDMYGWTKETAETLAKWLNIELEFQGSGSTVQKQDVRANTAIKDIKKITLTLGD

[14] = Displacement of Biocillin FL from Streptococcus pneumoniae 3413 PBP1B
[15] = Displacement of Biocillin FL from Streptococcus pneumoniae 3243 PBP3
[16] = biological target: T1, Penicillin-binding protein 1A; assay: Displacement of Biocillin FL from Streptococcus pneumoniae 3009 PBP1A
[17] = Displacement of Biocillin FL from Streptococcus pneumoniae 1076 PBP1B
[18] = Displacement of Biocillin FL from Streptococcus pneumoniae 1076 PBP3
[19] = Displacement of Biocillin FL from Streptococcus pneumoniae 3665 PBP1B
[20] = biological target: T3, Penicillin-binding protein 2x; assay: Displacement of Biocillin FL from Streptococcus pneumoniae 3009 PBP2X
[21] = system: Streptococcus pneumoniae; assay: Antimicrobial activity against penicillin-resistant Streptococcus pneumoniae 24 by CLSI method; assay type: functional

Row | SMILES | MIC [1] [µg/mL] | IC50 [2] [nM] | IC50 [3] [µg/mL] | IC50 [4] [µg/mL] | IC50 [5] [nM] | IC50 [6] [nM] | IC50 [7] [µg/mL] | IC50 [8] [µg/mL] | IC50 [9] [nM] | MIC [10] [µg/mL] | MIC [11] [µg/mL] | MIC [12] [µg/mL] | IC50 [13] [nM] | IC50 [14] [µg/mL] | IC50 [15] [µg/mL] | IC50 [16] [nM] | IC50 [17] [µg/mL] | IC50 [18] [µg/mL] | IC50 [19] [µg/mL] | IC50 [20] [nM] | further results
1 | C[C@@H](O)[C@H]1C(=O)N2C(C(=O)O)=C(SCCNC=N)C[C@H]12 [IMIPENEM ANHYDROUS] | 0.25 (≈ 0.835 µM) | 608 | 0.188 (≈ 0.628 µM) | 0.039 (≈ 0.13 µM) | 154 | 140 | 0.054 (≈ 0.18 µM) | 0.171 (≈ 0.571 µM) | 2170 | 0.008 (≈ 0.0267 µM) | 0.25 (≈ 0.835 µM) | 0.008 (≈ 0.0267 µM) | 1430 | 0.316 (≈ 1.06 µM) | 0.095 (≈ 0.317 µM) | 86.9 | 0.031 (≈ 0.104 µM) | 0.032 (≈ 0.107 µM) | 0.077 (≈ 0.257 µM) | 334 | MIC [21]: 0.25 µg/mL (≈ 0.835 µM)
2 | CC1(C)S[C@@H]2[C@H](NC(=O)[C@H](N)c3ccc(O)cc3)C(=O)N2[C@H]1C(=O)O [AMOXICILLIN] | 1 (≈ 2.74 µM) | 161 | 0.019 (≈ 0.052 µM) | 0.047 (≈ 0.129 µM) | 82.1 | 134 | 0.08 (≈ 0.219 µM) | 0.019 (≈ 0.052 µM) | 602 | 0.016 (≈ 0.0438 µM) | 16 (≈ 43.8 µM) | 0.016 (≈ 0.0438 µM) | 170 | 0.035 (≈ 0.0958 µM) | 0.006 (≈ 0.0164 µM) | 246 | 0.068 (≈ 0.186 µM) | 0.051 (≈ 0.14 µM) | 0.079 (≈ 0.216 µM) | 21.9 | MIC [21]: 2 µg/mL (≈ 5.47 µM)
3 | C[C@@H](O)[C@H]1C(=O)N2C(C(=O)O)=C([C@H]3CCCO3)S[C@H]12 [FAROPENEM] | 1 (≈ 3.5 µM) | 14 | 0.009 (≈ 0.0315 µM) | 0.006 (≈ 0.021 µM) | 28 | 80.6 | 0.016 (≈ 0.0561 µM) | 0.005 (≈ 0.0175 µM) | 165 | 0.03 (≈ 0.105 µM) | 0.06 (≈ 0.21 µM) | 0.03 (≈ 0.105 µM) | 1520 | 0.019 (≈ 0.0666 µM) | 0.004 (≈ 0.014 µM) | 35 | 0.002 (≈ 0.00701 µM) | 0.015 (≈ 0.0526 µM) | 0.012 (≈ 0.0421 µM) | 214 | MIC [21]: 1 µg/mL (≈ 3.5 µM)
4 | CC1(C)S[C@@H]2[C@H](NC(=O)Cc3ccccc3)C(=O)N2[C@H]1C(=O)O [PENICILLIN G] | 2 (≈ 5.98 µM) | 23.9 | 0.007 (≈ 0.0209 µM) | 0.001 (≈ 0.00299 µM) | 111 | 5.98 | 0.011 (≈ 0.0329 µM) | 0.01 (≈ 0.0299 µM) | 467 | 0.03 (≈ 0.0897 µM) | 8 (≈ 23.9 µM) | 0.03 (≈ 0.0897 µM) | 1920 | 0.205 (≈ 0.613 µM) | 0.007 (≈ 0.0209 µM) | 26.9 | 0.007 (≈ 0.0209 µM) | 0.016 (≈ 0.0478 µM) | 0.029 (≈ 0.0867 µM) | 32.9 | MIC [21]: 4 µg/mL (≈ 12 µM)
5 | CO/N=C(\C(=O)N[C@@H]1C(=O)N2C(C(=O)O)=C(COC(N)=O)CS[C@H]12)c1ccco1 [CEFUROXIME] | 8 (≈ 18.9 µM) | 14.1 | 0.048 (≈ 0.113 µM) | 0.024 (≈ 0.0566 µM) | 2740 | 14.1 | 0.008 (≈ 0.0189 µM) | 0.047 (≈ 0.111 µM) | 34700 | 0.03 (≈ 0.0707 µM) | 4 (≈ 9.43 µM) | 0.03 (≈ 0.0707 µM) | 9.43 | 0.032 (≈ 0.0754 µM) | 0.023 (≈ 0.0542 µM) | 23.6 | 0.008 (≈ 0.0189 µM) | 0.021 (≈ 0.0495 µM) | 0.016 (≈ 0.0377 µM) | 0.0943 | MIC [21]: 2 µg/mL (≈ 4.71 µM)

From ChEMBL document CHEMBL1649182, “Binding of faropenem and other beta-lactam agents to penicillin-binding proteins of pneumococci with various beta-lactam susceptibilities” (Antimicrob Agents Chemother, 2009)
